Active and inactive are the calls of the source. The calls are words filed in the database; no cut-off is given here.
Experiments:
P388 [1] = experiment: Antitumor activity against mouse P388 cells transplanted in DBA2/BDF1 mouse assessed as mean life span at 40 mg/kg, ip dosed daily for 5 days (reference value: 9.6 +/- 0.5 day); type: functional
Mus musculus [2] = experiment: Toxicity in DBA2/BDF1 mouse transplanted with mouse P388 cells assessed as reduction in spleen mass at 50 mg/kg, ip dosed daily for 5 days relative to control; type: organism-based; parameters: scale not given: the % may be the effect or the level left; settings: in vivo, 120 h
P388 [3] = experiment: Antitumor activity against mouse P388 cells transplanted in DBA2/BDF1 mouse assessed as mean life span at 10 mg/kg, ip dosed daily for 5 days relative to control; type: functional
P388 [4] = experiment: Antitumor activity against mouse P388 cells transplanted in DBA2/BDF1 mouse assessed as mean life span at 40 mg/kg, ip dosed daily for 5 days relative to control; type: functional
[5] = molecular target: Dual serine/threonine and tyrosine protein kinase (Homo sapiens, UniProt Q6XUX3); experiment: Inhibition of human RIPK5 by flashplate based radiometric 33pan-quinase assay
Calf thymus DNA [6] = experiment: Binding affinity to calf thymus DNA assessed as bathochromic shift at 5 uM by spectrophotometric analysis; type: nucleic-acid assay; settings: Bos taurus
[7] = molecular target: Serine/threonine-protein kinase pim-3 (Homo sapiens, UniProt Q86V86); experiment: Inhibition of full length human N-terminal GST-HIS6-tagged PIM3 expressed in sf9 cells by flashplate based radiometric 33pan-quinase assay
[8] = molecular target: MAP kinase-interacting serine/threonine-protein kinase 1 (Homo sapiens, UniProt Q9BUB5); experiment: Inhibition of human MKNK1 by flashplate based radiometric 33pan-quinase assay
HCT-116 [9] = experiment: Induction of apoptosis in human HCT116 cells assessed as necrotic cells at 1 uM after 48 hrs by Annexin V-FITC/propidium iodide staining based assay (reference value: 2 +/- 1%); type: functional
[10] = molecular target: Fibroblast growth factor receptor 1 (Homo sapiens, UniProt P11362, V561M); experiment: Inhibition of human FGF-R1 V561M mutant expressed in sf9 cells by flashplate based radiometric 33pan-quinase assay
HCT-116 [11] = experiment: Induction of apoptosis in p53 knockout human HCT116 cells assessed as late apoptotic cells at 1 uM after 24 hrs by Annexin V-FITC/propidium iodide staining based assay (reference value: 2 +/- 1%); type: functional
HCT-116 [12] = experiment: Induction of apoptosis in human HCT116 cells assessed as viable cells at 1 uM after 24 hrs by Annexin V-FITC/propidium iodide staining based assay (reference value: 95 +/- 2%); type: functional
Mus musculus [13] = experiment: Toxicity in DBA2/BDF1 mouse transplanted with mouse P388 cells at 5 to 40 mg/kg, ip dosed daily for 5 days; type: organism-based; settings: in vivo, 120 h
Aurora kinase B = Aurora kinase B (Homo sapiens, UniProt Q96GD4); experiment: Inhibition of full length human N-terminal GST-HIS6-tagged Aurora B expressed in sf9 cells by flashplate based radiometric 33pan-quinase assay
P388 [14] = experiment: Antitumor activity against mouse P388 cells transplanted in DBA2/BDF1 mouse assessed as mean life span at 30 mg/kg, ip dosed daily for 5 days (reference value: 9.6 to 9.7 day); type: functional
HCT-116 [15] = experiment: Induction of apoptosis in human HCT116 cells assessed as viable cells at 1 uM after 48 hrs by Annexin V-FITC/propidium iodide staining based assay (reference value: 95 +/- 2%); type: functional
[16] = molecular target: Serine/threonine-protein kinase pim-1 (Homo sapiens, UniProt P11309); experiment: Inhibition of full length human N-terminal GST-HIS6-tagged PIM1 expressed in sf9 cells by flashplate based radiometric 33pan-quinase assay
[17] = molecular target: Mitogen-activated protein kinase kinase kinase 7 (Homo sapiens, UniProt O43318); experiment: Inhibition of human MAP3K7 by flashplate based radiometric 33pan-quinase assay
Aurora kinase C = Aurora kinase C (Homo sapiens, UniProt Q9UQB9); experiment: Inhibition of full length human N-terminal GST-HIS6-tagged Aurora C expressed in sf9 cells by flashplate based radiometric 33pan-quinase assay
HCT-116 [18] = experiment: Induction of apoptosis in p53 knockout human HCT116 cells assessed as early apoptotic cells at 1 uM after 24 hrs by Annexin V-FITC/propidium iodide staining based assay (reference value: 2 +/- 1%); type: functional
Mus musculus [19] = experiment: Toxicity in DBA2/BDF1 mouse transplanted with mouse P388 cells assessed as spleen mass at 50 mg/kg, ip dosed daily for 5 days (reference value: 142 mg); type: organism-based; settings: in vivo, 120 h
[20] = Antiproliferative activity against human K562/4 cells after 72 hrs by MTT assay; settings: K562/4, 72 h
P388 [21] = experiment: Antitumor activity against mouse P388 cells transplanted in DBA2/BDF1 mouse assessed as mean life span at 20 mg/kg, ip dosed daily for 5 days relative to control; type: functional
Mus musculus [22] = experiment: Toxicity in mouse P388 cells transplanted DBA2/BDF1 mouse assessed as mouse mortality at 50 mg/kg, ip dosed daily for 5 days; type: organism-based; settings: in vivo, 120 h
P388 [23] = experiment: Antitumor activity against mouse P388 cells transplanted in DBA2/BDF1 mouse assessed as mean life span at 5 mg/kg, ip dosed daily for 5 days (reference value: 9.6 +/- 0.5 day); type: functional
[24] = Cell cycle arrest in p53 knockout human HCT116 cells assessed as accumulation in G2/M phase at 1 uM after 24 hrs; type: functional, cell-based; settings: HCT-116
P388 [25] = experiment: Antitumor activity against mouse P388 cells transplanted in DBA2/BDF1 mouse assessed as mean life span at 5 mg/kg, ip dosed daily for 5 days relative to control; type: functional
Calf thymus DNA [26] = experiment: Binding affinity to calf thymus DNA assessed as decrease in extinction of absorption maxima at 5 uM by spectrophotometric analysis; type: nucleic-acid assay; parameters: scale not given: the % may be the effect or the level left; settings: Bos taurus
[27] = Cell cycle arrest in human HCT116 cells assessed as accumulation in G2/M phase at 1 uM after 24 hrs; type: functional, cell-based; settings: HCT-116
[28] = molecular target: Serine/threonine-protein kinase tousled-like 1 (Homo sapiens, UniProt Q9UKI8); experiment: Inhibition of human N-terminal FLAG, C-terminal HIS8-tagged TLK1 expressed in sf9 cells by flashplate based radiometric 33pan-quinase assay
[29] = Cell cycle arrest in human HCT116 cells assessed as decrease in G1 phase at 1 uM after 24 hrs; type: functional, cell-based; settings: HCT-116
P388 [30] = experiment: Antitumor activity against mouse P388 cells transplanted in DBA2/BDF1 mouse assessed as mean life span at 20 mg/kg, ip dosed daily for 5 days (reference value: 9.6 +/- 0.5 day); type: functional
Calf thymus DNA [31] = settings: Bos taurus
Description: Binding affinity to calf thymus DNA assessed as binding constant by Scatchard plot analysis

L1210 = experiment: cells; settings: Mus musculus, L1210, 48 h
Description: Antiproliferative activity against mouse L1210 cells after 48 hrs by MTT assay

cells = settings: Homo sapiens, HCT-116, 72 h
Description: Antiproliferative activity against human HCT116 cells after 72 hrs by MTT assay

HeLa = experiment: Antiproliferative activity against human HeLa cells after 72 hrs by MTT assay; type: functional, cell-based
Calf thymus DNA [32] = experiment: Binding affinity to calf thymus DNA assessed as dissociation constant by Scatchard plot analysis; type: nucleic-acid assay, Bos taurus
P388 [33] = experiment: Antitumor activity against mouse P388 cells transplanted in DBA2/BDF1 mouse assessed as mean life span at 50 mg/kg, ip dosed daily for 5 days relative to control; type: functional
K562 = experiment: cells; settings: Homo sapiens, K562, 72 h
Description: Antiproliferative activity against human K562 cells after 72 hrs by MTT assay

MAP kinase-interacting serine/threonine-protein kinase 1, sequence (Q9BUB5 whole entry): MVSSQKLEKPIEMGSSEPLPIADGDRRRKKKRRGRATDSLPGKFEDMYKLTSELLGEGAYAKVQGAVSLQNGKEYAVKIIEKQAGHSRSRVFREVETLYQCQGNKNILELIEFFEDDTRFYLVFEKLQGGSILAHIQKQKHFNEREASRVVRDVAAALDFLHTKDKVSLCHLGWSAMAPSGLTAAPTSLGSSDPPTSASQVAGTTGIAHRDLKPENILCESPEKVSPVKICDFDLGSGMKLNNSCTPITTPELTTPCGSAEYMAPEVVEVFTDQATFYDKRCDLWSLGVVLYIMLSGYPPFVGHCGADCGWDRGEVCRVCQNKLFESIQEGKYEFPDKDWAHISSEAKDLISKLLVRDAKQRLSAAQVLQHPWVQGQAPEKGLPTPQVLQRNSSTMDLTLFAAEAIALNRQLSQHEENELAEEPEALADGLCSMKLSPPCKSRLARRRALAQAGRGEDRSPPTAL
Mitogen-activated protein kinase kinase kinase 7, sequence (O43318 whole entry): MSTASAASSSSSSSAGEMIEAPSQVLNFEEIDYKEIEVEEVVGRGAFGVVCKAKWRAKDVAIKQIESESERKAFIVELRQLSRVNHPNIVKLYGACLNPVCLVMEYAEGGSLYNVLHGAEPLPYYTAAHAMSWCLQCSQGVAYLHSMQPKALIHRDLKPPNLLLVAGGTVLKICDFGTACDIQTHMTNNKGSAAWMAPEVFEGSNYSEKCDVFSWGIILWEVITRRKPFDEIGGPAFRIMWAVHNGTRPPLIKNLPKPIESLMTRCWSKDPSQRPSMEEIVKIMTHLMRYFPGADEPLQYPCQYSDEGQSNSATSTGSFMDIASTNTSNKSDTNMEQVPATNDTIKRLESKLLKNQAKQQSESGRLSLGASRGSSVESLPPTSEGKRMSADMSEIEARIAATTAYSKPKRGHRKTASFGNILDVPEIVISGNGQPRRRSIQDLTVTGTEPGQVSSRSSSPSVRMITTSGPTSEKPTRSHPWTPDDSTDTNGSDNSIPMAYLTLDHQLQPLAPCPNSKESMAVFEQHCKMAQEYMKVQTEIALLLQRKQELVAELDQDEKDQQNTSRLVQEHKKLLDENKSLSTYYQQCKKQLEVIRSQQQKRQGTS
Aurora kinase B, sequence (Q96GD4 whole entry): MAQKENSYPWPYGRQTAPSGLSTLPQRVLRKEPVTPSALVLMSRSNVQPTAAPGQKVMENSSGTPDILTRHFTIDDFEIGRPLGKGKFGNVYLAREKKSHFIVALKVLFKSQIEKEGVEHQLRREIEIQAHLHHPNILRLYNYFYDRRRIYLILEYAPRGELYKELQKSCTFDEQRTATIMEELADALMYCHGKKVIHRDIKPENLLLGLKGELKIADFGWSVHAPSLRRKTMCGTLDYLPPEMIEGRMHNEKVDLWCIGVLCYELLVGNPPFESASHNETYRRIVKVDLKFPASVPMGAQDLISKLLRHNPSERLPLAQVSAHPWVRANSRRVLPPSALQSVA
Serine/threonine-protein kinase pim-1, sequence (P11309 whole entry): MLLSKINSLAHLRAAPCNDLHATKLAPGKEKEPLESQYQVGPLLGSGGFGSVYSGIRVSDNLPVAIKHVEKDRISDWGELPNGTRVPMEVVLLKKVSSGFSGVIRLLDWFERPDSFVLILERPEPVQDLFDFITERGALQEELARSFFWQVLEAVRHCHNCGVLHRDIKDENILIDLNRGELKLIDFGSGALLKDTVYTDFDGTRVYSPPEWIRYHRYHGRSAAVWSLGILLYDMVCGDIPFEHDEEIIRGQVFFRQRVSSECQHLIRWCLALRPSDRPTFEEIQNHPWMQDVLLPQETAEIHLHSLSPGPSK
Aurora kinase C, sequence (Q9UQB9 whole entry): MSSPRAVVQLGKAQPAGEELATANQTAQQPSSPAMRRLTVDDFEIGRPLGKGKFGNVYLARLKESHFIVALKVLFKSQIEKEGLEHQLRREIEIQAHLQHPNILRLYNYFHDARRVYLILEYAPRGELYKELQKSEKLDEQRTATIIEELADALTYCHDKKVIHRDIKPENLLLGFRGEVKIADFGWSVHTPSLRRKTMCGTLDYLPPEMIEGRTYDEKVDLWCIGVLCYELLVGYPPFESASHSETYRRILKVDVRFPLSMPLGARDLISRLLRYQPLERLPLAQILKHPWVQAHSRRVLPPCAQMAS
Serine/threonine-protein kinase tousled-like 1, sequence (Q9UKI8 whole entry): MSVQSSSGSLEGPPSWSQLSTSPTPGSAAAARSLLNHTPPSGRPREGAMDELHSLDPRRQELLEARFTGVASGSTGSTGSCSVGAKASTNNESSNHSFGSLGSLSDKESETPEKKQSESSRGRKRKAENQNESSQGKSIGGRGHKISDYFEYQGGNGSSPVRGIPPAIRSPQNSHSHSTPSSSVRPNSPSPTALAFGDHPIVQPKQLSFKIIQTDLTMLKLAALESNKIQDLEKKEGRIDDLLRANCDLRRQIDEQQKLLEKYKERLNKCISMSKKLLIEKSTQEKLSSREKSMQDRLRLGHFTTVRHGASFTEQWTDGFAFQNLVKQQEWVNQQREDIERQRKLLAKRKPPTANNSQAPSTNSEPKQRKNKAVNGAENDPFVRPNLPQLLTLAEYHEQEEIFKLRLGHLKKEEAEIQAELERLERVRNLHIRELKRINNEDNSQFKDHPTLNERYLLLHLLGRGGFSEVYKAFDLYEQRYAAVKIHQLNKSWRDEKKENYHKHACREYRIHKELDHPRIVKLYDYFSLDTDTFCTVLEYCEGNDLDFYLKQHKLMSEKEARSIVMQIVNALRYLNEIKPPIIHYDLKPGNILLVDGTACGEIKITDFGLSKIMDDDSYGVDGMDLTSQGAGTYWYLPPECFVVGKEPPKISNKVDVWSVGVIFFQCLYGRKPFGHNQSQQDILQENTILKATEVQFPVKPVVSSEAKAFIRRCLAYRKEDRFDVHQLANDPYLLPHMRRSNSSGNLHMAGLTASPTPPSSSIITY
Fibroblast growth factor receptor 1, sequence (P11362 22-822 V561M limits assumed): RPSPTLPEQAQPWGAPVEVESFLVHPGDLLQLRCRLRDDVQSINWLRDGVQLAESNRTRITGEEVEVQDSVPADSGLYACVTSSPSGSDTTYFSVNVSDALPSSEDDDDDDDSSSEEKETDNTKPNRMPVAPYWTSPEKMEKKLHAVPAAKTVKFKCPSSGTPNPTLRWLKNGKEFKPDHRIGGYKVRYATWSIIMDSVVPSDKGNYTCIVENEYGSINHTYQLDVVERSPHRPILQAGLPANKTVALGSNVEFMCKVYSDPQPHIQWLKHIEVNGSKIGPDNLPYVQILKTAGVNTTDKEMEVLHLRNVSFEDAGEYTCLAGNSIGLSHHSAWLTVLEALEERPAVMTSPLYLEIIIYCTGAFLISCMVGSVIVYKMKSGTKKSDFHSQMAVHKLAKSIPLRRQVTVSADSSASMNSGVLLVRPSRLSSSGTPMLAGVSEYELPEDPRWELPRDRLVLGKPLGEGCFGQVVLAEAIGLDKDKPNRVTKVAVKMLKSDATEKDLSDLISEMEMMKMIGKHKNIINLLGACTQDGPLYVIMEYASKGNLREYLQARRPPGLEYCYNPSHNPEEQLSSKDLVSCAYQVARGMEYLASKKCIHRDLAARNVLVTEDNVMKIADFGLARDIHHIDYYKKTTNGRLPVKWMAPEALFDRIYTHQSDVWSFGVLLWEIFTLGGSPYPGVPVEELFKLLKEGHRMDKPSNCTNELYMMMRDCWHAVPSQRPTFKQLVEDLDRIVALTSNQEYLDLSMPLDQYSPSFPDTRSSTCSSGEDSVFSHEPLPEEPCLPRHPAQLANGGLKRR
Dual serine/threonine and tyrosine protein kinase, sequence (Q6XUX3 whole entry): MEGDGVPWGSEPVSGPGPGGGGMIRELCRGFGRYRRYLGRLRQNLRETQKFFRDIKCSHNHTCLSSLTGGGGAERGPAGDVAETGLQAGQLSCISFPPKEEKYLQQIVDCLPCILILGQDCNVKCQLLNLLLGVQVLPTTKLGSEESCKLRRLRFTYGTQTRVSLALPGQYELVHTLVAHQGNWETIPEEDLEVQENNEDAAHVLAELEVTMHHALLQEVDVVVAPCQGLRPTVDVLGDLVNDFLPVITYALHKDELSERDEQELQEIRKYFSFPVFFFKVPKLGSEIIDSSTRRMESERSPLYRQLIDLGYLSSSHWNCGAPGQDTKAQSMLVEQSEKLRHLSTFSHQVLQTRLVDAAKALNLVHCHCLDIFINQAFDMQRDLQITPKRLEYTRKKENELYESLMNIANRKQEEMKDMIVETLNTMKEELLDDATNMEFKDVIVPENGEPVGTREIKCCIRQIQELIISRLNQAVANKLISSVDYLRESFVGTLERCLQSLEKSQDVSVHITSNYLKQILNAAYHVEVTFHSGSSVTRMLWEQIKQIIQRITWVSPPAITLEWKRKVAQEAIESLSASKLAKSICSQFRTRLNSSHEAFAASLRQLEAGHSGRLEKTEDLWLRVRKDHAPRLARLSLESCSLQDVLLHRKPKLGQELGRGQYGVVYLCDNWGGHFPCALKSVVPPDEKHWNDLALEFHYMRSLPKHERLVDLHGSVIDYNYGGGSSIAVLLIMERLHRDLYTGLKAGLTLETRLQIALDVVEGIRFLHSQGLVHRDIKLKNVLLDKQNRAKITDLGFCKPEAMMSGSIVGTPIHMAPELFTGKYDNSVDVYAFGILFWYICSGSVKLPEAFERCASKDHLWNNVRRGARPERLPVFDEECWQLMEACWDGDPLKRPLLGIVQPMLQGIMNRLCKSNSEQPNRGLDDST

CS(=O)(=O)O.Cc1oc2c(O)c3c(c(O)c2c1C(=O)N1CC[C@H](N)C1)C(=O)c1ccccc1C3=O
Activity (P388 [1]): 25.2 days
Activity (Mus musculus [2]): 40%
Activity (P388 [3]): 170%
Activity (P388 [4]): 262%
IC50 [5]: < 5 µM
Activity (Calf thymus DNA [6]): 9 nm
IC50 [7]: < 5 µM
IC50 [8]: < 5 µM
Activity (HCT-116 [9]): 30%
IC50 [10]: < 5 µM
Activity (HCT-116 [11]): 12%
viability at 1 µM (HCT-116 [12]; HCT-116, 24 h, read-out: Activity): 58%
Activity (Mus musculus [13]): Non-toxic
IC50 (Aurora kinase B): < 5 µM
Activity (P388 [14]): 20.8 days
viability at 1 µM (HCT-116 [15]; HCT-116, 48 h, read-out: Activity): 12%
IC50 [16]: < 5 µM
IC50 [17]: < 5 µM
IC50 (Aurora kinase C): < 5 µM
Activity (HCT-116 [18]): 17%
Activity (Mus musculus [19]): 87 mg
IC50 [20]: 1.4 µM
Activity (P388 [21]): 222%
Activity (Mus musculus [22]): Toxic
Activity (P388 [23]): 13.4 days
Activity [24]: Active
Activity (P388 [25]): 140%
Activity (Calf thymus DNA [26]): 36%
Activity [27]: Active
IC50 [28]: < 5 µM
Activity [29]: Active
Activity (P388 [30]): 21.3 days

CS(=O)(=O)O.Cc1oc2c(O)c3c(c(O)c2c1C(=O)N1CC[C@@H](N)C1)C(=O)c1ccccc1C3=O
Ka (Calf thymus DNA [31]): 5 ×10⁵ /M
Activity (Calf thymus DNA [6]): 9 nm
Activity (HCT-116 [9]): Active
IC50 (L1210): 1.9 µM
IC50 (cells): 1.2 µM
Activity (HCT-116 [11]): Active
Activity (HCT-116 [12]): Active
IC50 (HeLa): 2.1 µM
Activity (HCT-116 [15]): Active
Kd (Calf thymus DNA [32]): 2 µM
Activity (HCT-116 [18]): Active
Activity (P388 [33]): 178%
IC50 [20]: 1.3 µM
Activity [24]: Active
Activity (Calf thymus DNA [26]): 36%
IC50 (K562): 1.1 µM
Activity [27]: Active
Activity [29]: Active

— ChEMBL document CHEMBL3774310, “Discovery of antitumor anthra[2,3-b]furan-3-carboxamides: Optimization of synthesis and evaluation of antitumor properties” (Eur J Med Chem, 2016)
